US8933230B2, “Phosphorus-containing group-substituted quinoline, its preparation process, medical composition containing the compounds and application” (priority 2011, dated 2015)

Assays:
Assay in all cases: KinomeScan kinase panel
Type in all cases: binding
MARK2 = molecular target: T1, MARK2 (Homo sapiens, UniProt Q7KZI7)
T1 construct: purchased DiscoveRx Corporation (KinomeScan)
Procedure, shortened: (§1)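 Single-point screen: 1000 nM compound, KinomeScan panel of 442 kinases.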

BMPR2 = molecular target: T2, BMPR2 (Homo sapiens, UniProt Q13873)
T2 construct: purchased DiscoveRx Corporation (KinomeScan)
Procedure, shortened: as §1

MAP3K1 = molecular target: T3, MAP3K1 (Homo sapiens, UniProt Q13233)
T3 construct: purchased DiscoveRx Corporation (KinomeScan)
Procedure, shortened: as §1

TXK = molecular target: T4, TXK (Homo sapiens, UniProt P42681)
T4 construct: purchased DiscoveRx Corporation (KinomeScan)
T4 sequence (P42681 whole entry): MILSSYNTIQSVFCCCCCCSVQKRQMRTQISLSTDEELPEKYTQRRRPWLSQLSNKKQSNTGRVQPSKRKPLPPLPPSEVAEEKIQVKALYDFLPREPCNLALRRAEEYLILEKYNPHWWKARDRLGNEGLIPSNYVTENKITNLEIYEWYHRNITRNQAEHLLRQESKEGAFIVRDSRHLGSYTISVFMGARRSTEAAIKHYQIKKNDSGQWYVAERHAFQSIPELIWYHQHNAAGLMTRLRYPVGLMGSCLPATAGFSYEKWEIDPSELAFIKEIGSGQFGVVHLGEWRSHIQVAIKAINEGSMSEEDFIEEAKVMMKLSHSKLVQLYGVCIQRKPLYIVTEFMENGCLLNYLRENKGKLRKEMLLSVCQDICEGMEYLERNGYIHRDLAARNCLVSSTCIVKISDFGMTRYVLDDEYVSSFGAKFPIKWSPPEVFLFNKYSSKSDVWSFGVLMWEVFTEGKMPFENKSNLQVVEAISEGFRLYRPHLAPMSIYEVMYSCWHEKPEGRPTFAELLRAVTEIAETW
Procedure, shortened: as §1

PIK3CA(C420R) = molecular target: T5, PIK3CA(C420R) (Homo sapiens, UniProt P42336, C420R)
T5 construct: purchased DiscoveRx Corporation (KinomeScan)
Procedure, shortened: as §1

LRRK2(G2019S) = molecular target: T6, LRRK2(G2019S) (Homo sapiens, UniProt Q5S007, G2019S)
T6 construct: purchased DiscoveRx Corporation (KinomeScan)
Procedure, shortened: as §1

CLK4 = molecular target: T7, CLK4 (Homo sapiens, UniProt Q9HAZ1)
T7 construct: purchased DiscoveRx Corporation (KinomeScan)
T7 sequence (Q9HAZ1 whole entry): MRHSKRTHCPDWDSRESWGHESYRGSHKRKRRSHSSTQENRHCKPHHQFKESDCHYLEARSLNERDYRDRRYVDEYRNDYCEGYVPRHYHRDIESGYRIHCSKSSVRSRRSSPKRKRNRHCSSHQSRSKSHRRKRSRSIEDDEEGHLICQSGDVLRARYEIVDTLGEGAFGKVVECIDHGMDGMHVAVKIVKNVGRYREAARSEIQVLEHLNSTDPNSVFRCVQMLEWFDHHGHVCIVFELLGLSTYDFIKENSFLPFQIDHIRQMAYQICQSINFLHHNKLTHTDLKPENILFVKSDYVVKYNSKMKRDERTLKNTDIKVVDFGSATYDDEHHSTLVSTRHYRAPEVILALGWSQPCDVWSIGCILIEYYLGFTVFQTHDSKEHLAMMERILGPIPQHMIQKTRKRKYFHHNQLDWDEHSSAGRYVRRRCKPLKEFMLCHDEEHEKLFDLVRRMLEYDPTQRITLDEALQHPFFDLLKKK
Procedure, shortened: as §1

TGFBR1 = molecular target: T8, TGFBR1 (Homo sapiens, UniProt P36897)
T8 construct: purchased DiscoveRx Corporation (KinomeScan)
Procedure, shortened: as §1

LATS1 = molecular target: T9, LATS1 (Homo sapiens, UniProt O95835)
T9 construct: purchased DiscoveRx Corporation (KinomeScan)
Procedure, shortened: as §1

DAPK2 = molecular target: T10, DAPK2 (Homo sapiens, UniProt Q9UIK4)
T10 construct: purchased DiscoveRx Corporation (KinomeScan)
Procedure, shortened: as §1

TNK1 = molecular target: T11, TNK1 (Homo sapiens, UniProt Q13470)
T11 construct: purchased DiscoveRx Corporation (KinomeScan)
T11 sequence (Q13470 whole entry): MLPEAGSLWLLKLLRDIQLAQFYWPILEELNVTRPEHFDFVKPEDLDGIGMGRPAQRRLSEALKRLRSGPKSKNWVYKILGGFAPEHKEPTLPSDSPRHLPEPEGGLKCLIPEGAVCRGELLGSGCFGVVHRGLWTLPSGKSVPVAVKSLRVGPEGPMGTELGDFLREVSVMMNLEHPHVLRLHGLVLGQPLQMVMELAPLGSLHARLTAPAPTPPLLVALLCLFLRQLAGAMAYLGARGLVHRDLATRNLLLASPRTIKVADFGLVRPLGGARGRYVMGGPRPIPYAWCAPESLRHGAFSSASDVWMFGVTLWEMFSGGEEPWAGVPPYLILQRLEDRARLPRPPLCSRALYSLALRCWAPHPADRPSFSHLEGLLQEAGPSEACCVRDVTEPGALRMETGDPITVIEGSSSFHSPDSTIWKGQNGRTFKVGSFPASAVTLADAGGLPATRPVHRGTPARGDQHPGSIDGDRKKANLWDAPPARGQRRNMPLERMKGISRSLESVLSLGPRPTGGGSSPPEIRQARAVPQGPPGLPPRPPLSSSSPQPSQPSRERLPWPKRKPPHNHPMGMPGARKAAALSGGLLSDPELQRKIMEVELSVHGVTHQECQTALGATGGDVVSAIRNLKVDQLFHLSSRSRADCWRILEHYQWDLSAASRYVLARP
Procedure, shortened: as §1

NEK1 = molecular target: T12, NEK1 (Homo sapiens, UniProt Q96PY6)
T12 construct: purchased DiscoveRx Corporation (KinomeScan)
Procedure, shortened: as §1

PIK3CA(M1043I) = molecular target: T13, PIK3CA(M1043I) (Homo sapiens, UniProt P42336, M1043I)
T13 construct: purchased DiscoveRx Corporation (KinomeScan)
Procedure, shortened: as §1

SIK = molecular target: T14, SIK (Homo sapiens, UniProt P57059)
T14 construct: purchased DiscoveRx Corporation (KinomeScan)
Procedure, shortened: as §1

ZAP7C = molecular target: T15, ZAP7C (Homo sapiens, UniProt P43403)
T15 construct: purchased DiscoveRx Corporation (KinomeScan service)
T15 sequence (P43403 whole entry): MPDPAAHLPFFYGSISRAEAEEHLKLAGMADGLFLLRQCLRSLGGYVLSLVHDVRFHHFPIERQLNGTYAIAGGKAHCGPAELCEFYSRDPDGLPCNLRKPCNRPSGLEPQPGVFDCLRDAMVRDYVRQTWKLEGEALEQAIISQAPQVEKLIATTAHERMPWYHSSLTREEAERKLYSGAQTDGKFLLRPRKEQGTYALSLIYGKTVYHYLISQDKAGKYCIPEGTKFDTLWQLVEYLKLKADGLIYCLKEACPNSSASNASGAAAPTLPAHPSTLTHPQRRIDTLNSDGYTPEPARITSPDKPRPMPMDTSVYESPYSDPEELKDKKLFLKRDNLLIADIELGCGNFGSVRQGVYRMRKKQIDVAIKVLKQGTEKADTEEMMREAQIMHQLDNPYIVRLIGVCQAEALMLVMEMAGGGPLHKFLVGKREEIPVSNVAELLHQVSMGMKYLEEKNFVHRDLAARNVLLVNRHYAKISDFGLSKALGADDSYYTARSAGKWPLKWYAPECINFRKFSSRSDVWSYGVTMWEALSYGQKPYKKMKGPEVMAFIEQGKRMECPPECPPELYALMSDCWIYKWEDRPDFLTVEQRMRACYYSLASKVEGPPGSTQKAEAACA
Procedure, shortened: as §1

KIT(A829P) = molecular target: T16, KIT(A829P) (Homo sapiens, UniProt P10721, A829P)
T16 construct: purchased DiscoveRx Corporation (KinomeScan)
Procedure, shortened: as §1

ARK5 = molecular target: T17, ARK5 (Homo sapiens, UniProt O60285)
T17 construct: purchased DiscoveRx Corporation (KinomeScan)
Procedure, shortened: as §1

DLK = molecular target: T18, DLK (Homo sapiens, UniProt Q12852)
T18 construct: purchased DiscoveRx Corporation (KinomeScan)
Procedure, shortened: as §1

NLK = molecular target: T19, NLK (Homo sapiens, UniProt Q9UBE8)
T19 construct: purchased DiscoveRx Corporation (KinomeScan panel)
Procedure, shortened: as §1

PRP4 = molecular target: T20, PRP4 (Homo sapiens, UniProt Q13523)
T20 construct: purchased DiscoveRx Corporation
Procedure, shortened: as §1

MET(M1250T) = molecular target: T21, MET(M1250T) (Homo sapiens, UniProt P08581, M1250T)
T21 construct: purchased DiscoveRx Corporation (KinomeScan)
Procedure, shortened: as §1

MST4 = molecular target: T22, MST4 (Homo sapiens, UniProt Q9P289)
T22 construct: purchased DiscoveRx Corporation (KinomeScan)
T22 sequence (Q9P289 whole entry): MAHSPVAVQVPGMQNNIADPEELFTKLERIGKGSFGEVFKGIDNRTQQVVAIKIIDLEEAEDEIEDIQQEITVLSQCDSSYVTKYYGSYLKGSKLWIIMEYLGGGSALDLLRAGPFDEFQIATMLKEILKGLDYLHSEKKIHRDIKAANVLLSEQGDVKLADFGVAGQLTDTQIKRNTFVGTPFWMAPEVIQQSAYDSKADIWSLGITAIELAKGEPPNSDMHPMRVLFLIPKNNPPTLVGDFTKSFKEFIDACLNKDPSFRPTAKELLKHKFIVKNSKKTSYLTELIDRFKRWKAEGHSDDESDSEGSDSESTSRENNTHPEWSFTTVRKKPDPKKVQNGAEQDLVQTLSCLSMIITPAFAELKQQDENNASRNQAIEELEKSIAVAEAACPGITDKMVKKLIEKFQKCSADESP
Procedure, shortened: as §1

TBK1 = molecular target: T23, TBK1 (Homo sapiens, UniProt Q9UHD2)
T23 construct: purchased DiscoveRx Corporation (KinomeScan)
Procedure, shortened: as §1

ERK1 = molecular target: T24, ERK1 (Homo sapiens, UniProt P27361)
T24 construct: purchased DiscoveRx Corporation (KinomeScan)
Procedure, shortened: as §1

CSNK1E = molecular target: T25, CSNK1E (Homo sapiens, UniProt P49674)
T25 construct: purchased DiscoveRx Corporation (KinomeScan)
Procedure, shortened: as §1

EPHB6 = molecular target: T26, EPHB6 (Homo sapiens, UniProt O15197)
T26 construct: purchased DiscoveRx Corporation (KinomeScan)
T26 sequence (O15197 32-1021): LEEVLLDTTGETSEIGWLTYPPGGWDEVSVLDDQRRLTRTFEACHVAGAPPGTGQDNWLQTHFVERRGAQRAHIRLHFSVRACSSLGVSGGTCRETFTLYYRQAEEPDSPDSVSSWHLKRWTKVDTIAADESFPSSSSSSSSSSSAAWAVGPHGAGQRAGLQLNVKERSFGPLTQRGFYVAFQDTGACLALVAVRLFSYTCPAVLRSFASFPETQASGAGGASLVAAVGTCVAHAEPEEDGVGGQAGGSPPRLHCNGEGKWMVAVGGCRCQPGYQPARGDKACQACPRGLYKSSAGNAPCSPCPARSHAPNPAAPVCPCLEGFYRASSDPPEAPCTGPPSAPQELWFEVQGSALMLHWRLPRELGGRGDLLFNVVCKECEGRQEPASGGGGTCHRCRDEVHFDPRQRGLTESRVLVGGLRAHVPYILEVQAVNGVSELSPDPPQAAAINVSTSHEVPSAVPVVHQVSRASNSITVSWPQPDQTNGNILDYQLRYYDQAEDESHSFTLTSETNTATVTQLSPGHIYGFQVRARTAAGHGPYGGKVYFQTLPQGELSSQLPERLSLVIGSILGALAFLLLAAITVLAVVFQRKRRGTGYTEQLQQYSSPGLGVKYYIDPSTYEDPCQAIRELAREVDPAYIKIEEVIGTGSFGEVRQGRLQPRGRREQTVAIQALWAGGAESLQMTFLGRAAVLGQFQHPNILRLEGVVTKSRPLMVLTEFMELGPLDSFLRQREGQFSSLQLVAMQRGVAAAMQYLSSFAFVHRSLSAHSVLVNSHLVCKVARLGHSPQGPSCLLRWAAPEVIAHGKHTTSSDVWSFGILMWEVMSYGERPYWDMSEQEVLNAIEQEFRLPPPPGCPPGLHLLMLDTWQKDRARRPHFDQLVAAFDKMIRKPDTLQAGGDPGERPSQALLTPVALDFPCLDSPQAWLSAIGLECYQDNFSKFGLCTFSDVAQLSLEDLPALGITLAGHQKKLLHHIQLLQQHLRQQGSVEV
Procedure, shortened: as §1

P38-alpha = molecular target: T27, P38-alpha (Homo sapiens, UniProt Q16539)
T27 construct: purchased DiscoveRx Corporation (KinomeScan panel)
Procedure, shortened: as §1

ROCK2 = molecular target: T28, ROCK2 (Homo sapiens, UniProt O75116)
T28 construct: purchased DiscoveRx Corporation
Procedure, shortened: as §1

FER = molecular target: T29, FER (Homo sapiens, UniProt P16591)
T29 construct: purchased DiscoveRx Corporation (KinomeScan)
Procedure, shortened: as §1

IRAK4 = molecular target: T30, IRAK4 (Homo sapiens, UniProt Q9NWZ3)
T30 construct: purchased DiscoveRx Corporation (KinomeScan)
T30 sequence (Q9NWZ3 whole entry): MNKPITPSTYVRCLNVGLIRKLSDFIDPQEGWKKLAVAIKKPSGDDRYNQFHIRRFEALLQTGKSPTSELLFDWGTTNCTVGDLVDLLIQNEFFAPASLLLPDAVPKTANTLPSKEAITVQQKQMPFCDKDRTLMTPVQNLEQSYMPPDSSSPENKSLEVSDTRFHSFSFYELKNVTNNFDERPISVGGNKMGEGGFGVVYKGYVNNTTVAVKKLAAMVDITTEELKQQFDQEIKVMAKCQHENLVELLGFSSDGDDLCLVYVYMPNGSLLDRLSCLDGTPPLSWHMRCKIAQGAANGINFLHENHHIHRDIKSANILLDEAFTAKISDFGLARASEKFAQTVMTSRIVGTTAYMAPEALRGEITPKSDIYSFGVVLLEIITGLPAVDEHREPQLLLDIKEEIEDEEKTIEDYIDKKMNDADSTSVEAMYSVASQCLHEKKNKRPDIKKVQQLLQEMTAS
Procedure, shortened: as §1

ICK = molecular target: T31, ICK (Homo sapiens, UniProt Q9UPZ9)
T31 construct: purchased DiscoveRx Corporation (KinomeScan)
T31 sequence (Q9UPZ9 whole entry): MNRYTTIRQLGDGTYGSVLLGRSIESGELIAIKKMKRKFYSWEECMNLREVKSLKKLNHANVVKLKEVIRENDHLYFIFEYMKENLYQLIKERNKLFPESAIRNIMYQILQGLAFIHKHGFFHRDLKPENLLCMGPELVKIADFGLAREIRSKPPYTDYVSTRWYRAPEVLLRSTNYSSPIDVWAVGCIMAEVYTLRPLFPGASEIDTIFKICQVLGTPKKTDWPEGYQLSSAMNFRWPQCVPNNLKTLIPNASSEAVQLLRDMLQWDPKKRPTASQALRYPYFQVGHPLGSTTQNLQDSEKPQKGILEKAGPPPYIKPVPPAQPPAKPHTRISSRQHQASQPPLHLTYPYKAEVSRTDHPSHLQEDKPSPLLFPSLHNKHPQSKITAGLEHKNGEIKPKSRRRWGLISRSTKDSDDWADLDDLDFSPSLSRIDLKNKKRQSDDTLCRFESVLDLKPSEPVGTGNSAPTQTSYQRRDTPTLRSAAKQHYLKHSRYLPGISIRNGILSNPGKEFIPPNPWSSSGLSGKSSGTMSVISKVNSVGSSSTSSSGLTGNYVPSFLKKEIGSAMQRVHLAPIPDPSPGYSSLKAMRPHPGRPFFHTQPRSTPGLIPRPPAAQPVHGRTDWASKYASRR
Procedure, shortened: as §1

EPHB3 = molecular target: T32, EPHB3 (Homo sapiens, UniProt P54753)
T32 construct: purchased DiscoveRx Corporation (KinomeScan)
Procedure, shortened: as §1

YSK4 = molecular target: T33, YSK4 (Homo sapiens, UniProt Q56UN5)
T33 construct: purchased DiscoveRx Corporation (KinomeScan service)
Procedure, shortened: as §1

[1] = molecular target: T34, ABL1(F317L)-nonphosphorylated (Homo sapiens, UniProt P00519, F317L)
T34 construct: purchased DiscoveRx Corporation (KinomeScan)
Procedure, shortened: as §1

PIK3CA(Q546K) = molecular target: T35, PIK3CA(Q546K) (Homo sapiens, UniProt P42336, Q546K)
T35 construct: purchased DiscoveRx Corporation (KinomeScan)
Procedure, shortened: as §1

ASK2 = molecular target: T36, ASK2 (Homo sapiens, UniProt O95382)
T36 construct: purchased DiscoveRx Corporation (KinomeScan)
Procedure, shortened: as §1

CCOP(=O)(CN1CCC(COc2cc3nccc(Oc4ccc(NC(=O)C5(C(=O)Nc6ccc(F)cc6)CC5)cc4F)c3cc2OC)CC1)OCC [Example 10, N1-[4-[[7-[[1-(diethoxyphosphorylmethyl)-4-piperidinyl]methoxyl]-6-methoxyl-4-quinolyl]oxyl]-3-fluorophenyl]-N1′-(4-fluorophenyl)cyclopropane-1,1-dicarboxamide]
% Ctrl@1000 nM (MARK2): 100 % Ctrl
% Ctrl@1000 nM (BMPR2): 100 % Ctrl
% Ctrl@1000 nM (MAP3K1): 80 % Ctrl
% Ctrl@1000 nM (TXK): 62 % Ctrl
% Ctrl@1000 nM (PIK3CA(C420R)): 100 % Ctrl
% Ctrl@1000 nM (LRRK2(G2019S)): 100 % Ctrl
% Ctrl@1000 nM (CLK4): 46 % Ctrl
% Ctrl@1000 nM (TGFBR1): 100 % Ctrl
% Ctrl@1000 nM (LATS1): 100 % Ctrl
% Ctrl@1000 nM (DAPK2): 100 % Ctrl
% Ctrl@1000 nM (TNK1): 30 % Ctrl
% Ctrl@1000 nM (NEK1): 100 % Ctrl
% Ctrl@1000 nM (PIK3CA(M1043I)): 100 % Ctrl
% Ctrl@1000 nM (SIK): 60 % Ctrl
% Ctrl@1000 nM (ZAP7C): 81 % Ctrl
% Ctrl@1000 nM (KIT(A829P)): 64 % Ctrl
% Ctrl@1000 nM (ARK5): 100 % Ctrl
% Ctrl@1000 nM (DLK): 52 % Ctrl
% Ctrl@1000 nM (NLK): 100 % Ctrl
% Ctrl@1000 nM (PRP4): 76 % Ctrl
% Ctrl@1000 nM (MET(M1250T)): 3 % Ctrl
% Ctrl@1000 nM (MST4): 80 % Ctrl
% Ctrl@1000 nM (TBK1): 79 % Ctrl
% Ctrl@1000 nM (ERK1): 99 % Ctrl
% Ctrl@1000 nM (CSNK1E): 100 % Ctrl
% Ctrl@1000 nM (EPHB6): 0.9 % Ctrl
% Ctrl@1000 nM (P38-alpha): 53 % Ctrl
% Ctrl@1000 nM (ROCK2): 100 % Ctrl
% Ctrl@1000 nM (FER): 50 % Ctrl
% Ctrl@1000 nM (IRAK4): 100 % Ctrl
% Ctrl@1000 nM (ICK): 95 % Ctrl
% Ctrl@1000 nM (EPHB3): 36 % Ctrl
% Ctrl@1000 nM (YSK4): 1.7 % Ctrl
% Ctrl@1000 nM [1]: 10 % Ctrl
% Ctrl@1000 nM (PIK3CA(Q546K)): 100 % Ctrl
% Ctrl@1000 nM (ASK2): 100 % Ctrl
